Source: patent publication US20230304010A1, “COMPOSITIONS AND METHODS FOR TREATING VIRAL INFECTIONS” (priority 2020, published 2023)
Ends that are not written are not given here.

Columns and labels:
[1] = test system: ACE2 : SARS-CoV-2 Spike Delta (B1 617 2/India) variant; type: binding; details: read-out: IC50, Delta (B1617)
[2] = test system: ACE2 : SARS-CoV-2 Spike Gamma (P1/Brazil) variant; type: binding
[3] = test system: SARS-CoV-2 variants (Alpha/Beta/Delta); type: cell-based
[4] = test system: ACE2 : SARS-CoV-2 Spike Alpha (B1.1.7/United Kingdom) variant; type: binding; details: read-out: IC50, Alpha (B117)
[5] = test system: ACE2 : SARS-CoV-2 Spike Beta (B1.351/South Africa) variant; type: binding; details: read-out: IC50, Beta (B1312)
[6] = test system: ACE2 : SARS-CoV-2 Spike Epsilon (B1429) variant; type: binding

Ac-KTFLDKFNHEAEDLFPGPKWSAFLKEQSTLAQMYG [Seq28]
IC50 [1]: 29.2 ± 11 nM
IC50 [2]: 41.7 ± 11 nM
fold stronger anti-SARS-CoV-2 activity than Remdesivir [3]: 200 fold
IC50 [4]: 24.6 ± 11 nM
IC50 [5]: 31.5 ± 5 nM
IC50 [6]: 28.8 ± 7 nM
